Laboratory results published in patent US5565462A, “Composition for topical treatment of psoriasis and atopic dermatitis comprising a xanthine derivative” (Teva Pharmaceutical Industries, Ltd., priority 1991, dated 1996).
“Also recorded” adds a separate entry of the source.

Experiments:
[1] = tested on: peripheral blood mononuclear cells (PBMC); conditions: Ravid et al. 1990; cited from earlier work
[2] = tested on: human psoriatic fibroblasts; test: Inhibition of human psoriatic fibroblast proliferation; assay type: cell-based
Method: PTX and PPF, alone as well as PTX in combination with other drugs were tested.
Human psoriatic fibroblasts were obtained from skin biopsies of 5 individuals with plaque psoriasis. Cells in the 3-7th passages were used for the experiments. Human psoriatic fibroblasts (4×10^3 -6×10^3 cells) were added in 24-well plates and cultured in Dulbecco's Modified Eagle's Medium (DMEM) supplemented with 10% fetal calf serum, 2 mM L-glutamine, 100 u/ml penicillin, 100 μg/ml streptomycin (DMEM+) at 5% CO2 and 95% humidity at 37° C.
After 3 days, medium was replaced with fresh DMEM+(control) or with medium containing various concentrations of compounds alone or in combination with pentoxifylline and incubation was continued for additional 3 days. Stock solutions (10^-1 -10^-2 M) of the compounds tested were made in ethanol. For these compounds special control (DMEM+ with 1% ethanol) was made. The compounds tested together with pentoxifylline were 3-heptanone, 3,3-dimethylbutyric acid, lipoic acid, 1,25-dihydroxyvitamin D3 betamethasone dipropionate and hydrocortisone-17-butyrate.
On the last day of experiments, the medium was aspirated and the cells were obtained by trypsinization. The number of cells in each well was counted by the use of an hemocytometer.
The percentage of inhibition of fibroblast proliferation was calculated according to the formula: [formula] and the results are shown in Tables 3 and 4.

[3] = tested on: human peripheral blood mononuclear cells (lymphocytes); test: Inhibition of the mitogenic (PHA) stimulation of human lymphocytes (PBMC), [3H]thymidine; assay type: cell-based; conditions: for inhibition at 1000 µM / inhibition at 300 µM: Homo sapiens, Lymphocyte, lymphocytes from healthy volunteers, read-out: net inhibitory effect on the mitogenic stimulation of human lymphocytes; for inhibition at 1000 µM: 1 × 10^-3 M; for inhibition at 300 µM: 3 × 10^-4 M
Method: Buffy coats from the Beilinson Medical Center Blood Bank or 20 mL samples of heparinized venous blood from healthy or atopic donors were used as a source for human peripheral blood mononuclear (PBM) cells. PBM cells were separated by Ficoll-Hypaque density gradient centrifugation. […] The nonadhering cells were stirred gently and carefully collected.
PHA (1 μg/mL), indomethacin (5 μg/mL) and various xanthine derivatives were added at initiation of culture. Indomethacin was dissolved in ethanol. […] [methyl-^3 H]Thymidine (1 μCi/well) was added at 68 h, and the cells were harvested 4 h later using an automated cell harvester (Dynatech, Alexandria, Va.). Unless otherwise stated, all cultures were performed in triplicate.

[4] = tested on: human psoriatic skin transplants; test: Topical treatment of human psoriatic skin transplanted to nude mice (epidermal thickness / acanthosis); assay type: in vivo, human skin on outbred Balb/C nude mice; conditions: for Average Improvement (decrease in epidermal thickness) / % Improvement (Decrease in Thickness): 7 days; for Average Improvement (decrease in epidermal thickness): placebo 5%
Excerpt: Human psoriatic skin from psoriatic patients was transplanted to nude mice essentially according to the method of G. Kreuger et al., Prog. in Dermatol. […] The donors had stable plaque type psoriasis for at least one year preceding biopsy and had not received systemic anti-psoriatic therapy for the 4 weeks preceding biopsy. They had also not received topical therapy or U.V. therapy for the two weeks preceding biopsy. […] In this method the area (A) of the psoriasis in four main body parts (head (H), trunk (T), upper extremities (U) and lower extremities (L)) is assigned a value from 0-6 depending on the extent of psoriasis where O reflects no involvement and 6 reflects 90-100% involvement. The severity of the lesion is assessed based on three parameters: Erythema (E), Desquamation (scaling) (D) and Infiltration (I). The severity of each of these parameters is measured on a scale of 0-4 where 0 is no involvement and 4 is very sever. The total severity score is calculated according to the following formula: […]
Split thickness biopsies of nonpustular psoriatic human tissue, 4×5 cm and 0.4 mm thick were obtained from the edge of established plaques from various donor patients. […] The grafts were allowed to heal for one week prior to topical application of the test preparations.
Outbred Balb/C nude mice, 2 to 3 months of age were used in this study. The mice were obtained from the pathogen free animal breeding facility at the University of Tel Aviv (Israel) and were raised in the pathogen-free animal facility at the Faculty of Medicine, Technion-Israel Institute of Technology, Haifa, Israel.
On the day following the end of treatment the severity of the psoriatic lesion was assessed and then the animals were sacrificed and the entire graft was excised and divided into two equal sections. One section was used to assess changes in the rate of proliferation by autoradiography (tritiated thymidine incorporation) while the other section was sectioned for microscopic histological assessment, including acanthosis and parakeratosis.
In another series of experiments, human psoriatic skin of various severities was transplanted on each of 28 nude mice. The graft area was treated with various preparations as described above.
The treatments were applied as creams and were administered as described above.

psoriasis lesions = test: Clinical trial in psoriasis, 5% dyphylline cream vs placebo, PASI; assay type: in vivo, human patients; conditions: for % Decrease in PASI: 5% dyphylline cream, n = 33
Method: Two similar plaque areas of psoriasis (i.e. both legs or forearms), were selected for treatment in each patient. In each patient one area on one side of the body was treated with 2% pentoxifylline formulated as in Example 1 and the other area on the other side of the body was treated with placebo cream formulated identically but without the pentoxifylline. The cream (formulation A in Example 1) was applied by the patient twice daily.
The dermatological assessment was performed as follows. The dermatologist measured the area of the lesion in cm^2. The severity of each lesion was evaluated by grading erythema, scaling and thickness on a 0-4 scale where 0=none, 1=slight, 2=moderate, 3=severe and 4=exceptionally severe.
Based on these measurements the Psoriasis Area Severity Index (PASI) was calculated for each of the 2 lesions on each patient as follows:
PASI=Area x (Erythema+Thickness+Scaling)
In a different series of tests 5% dyphylline cream was applied in the same vehicle that had been used to apply PTX cream. Thus the formulation used in this series of tests was the same as in Example 1 with the exception that 5% dyphylline was used in place of 2% pentoxifylline. The design of the trial was similar in all respects to the clinical trial of PTX described in Example 5 except that the number of patients was 33.

[5] = additional drug 10^-3 M with PTX 10^-3 M
[6] = additional drug 10^-3 M with PTX 10^-4 M
[7] = additional drug 10^-4 M with PTX 10^-3 M
[8] = additional drug 10^-4 M with PTX 10^-4 M
[9] = additional drug 10^-7 M with PTX 10^-4 M

C[C@@H]1C[C@H]2[C@@H]3CCC4=CC(=O)C=C[C@]4(C)[C@@]3(F)[C@@H](O)C[C@]2(C)[C@@]1(O)C(=O)CO [dexamethasone]
inhibition of mitogenic stimulation of PBMC (in words) [1]: inhibited the mitogenic stimulation of PBMC

CCCCCC(C)=O [2-Heptanone]
% Inhibition of Proliferation [2, 5]: 45%
% Inhibition of Proliferation [2, 6]: 18.6%
% Inhibition of Proliferation [2, 7]: 26.4%
% Inhibition of Proliferation [2, 8]: 21.0%
% Inhibition of Proliferation ([2]; additional drug 10^-5 M with PTX 10^-3 M): 21.3%

CCC(=O)OCC(=O)[C@@]1(OC(=O)CC)[C@@H](C)C[C@H]2[C@@H]3CCC4=CC(=O)C=C[C@]4(C)[C@@]3(F)[C@@H](O)C[C@@]21C [Betamethasone dipropionate, betamethasone dipropionate]
% Inhibition of Proliferation [2, 7]: 77.5%
% Inhibition of Proliferation [2, 8]: 55.8%
% Inhibition of Proliferation [2, 9]: 43.1%

Cn1c(=O)c2[nH]cnc2n(C)c1=O [Theophylline]
inhibition at 1000 µM [3]: 59%
inhibition at 300 µM [3]: 37%

CC(C)(C)CC(=O)O [3,3dimethyl butyricacid, 3,3-dimethylbutyric acid]
% Inhibition of Proliferation [2, 5]: 21%
% Inhibition of Proliferation [2, 6]: 36.3%
% Inhibition of Proliferation [2, 7]: 17.2%
% Inhibition of Proliferation [2, 8]: 19.3%

C=C1/C(=C\C=C2/CCC[C@]3(C)[C@@H]([C@H](C)CCCC(C)(C)O)CC[C@@H]23)C[C@@H](O)C[C@@H]1O [1,25(OH)2 D3, 1,25-dihydroxyvitamin D3]
% Inhibition of Proliferation [2, 9]: 49.5%

CCC(=O)O[C@]1(C(=O)CCl)[C@@H](C)C[C@H]2[C@@H]3CCC4=CC(=O)C=C[C@]4(C)[C@@]3(F)[C@@H](O)C[C@@]21C [Clobetasol propionate]
Average Improvement (decrease in epidermal thickness) ([4]; 0.05% clobetasol propionate (Dermovate)): 35%
% Improvement (Decrease in Thickness) ([4]; 0.05% clobetasol propionate, donor patient 1 (PASI 3.2)): 45%
% Improvement (Decrease in Thickness) ([4]; 0.05% clobetasol propionate, donor patient 3 (PASI 7.6)): 41%
% Improvement (Decrease in Thickness) ([4]; 0.05% clobetasol propionate, donor patient 4 (PASI 17.6)): 55%
% Improvement (Decrease in Thickness) ([4]; 0.05% clobetasol propionate, donor patient 5 (PASI 31.3)): 0%
Epidermal Thickness (Acanthosis) after 7 days treatment ([4]; 0.05% clobetasol propionate, donor patient 1 (PASI 3.2), before treatment 44 μm): 24 μm
Epidermal Thickness (Acanthosis) after 7 days treatment ([4]; 0.05% clobetasol propionate, donor patient 3 (PASI 7.6), before treatment 46 μm): 27 μm
Epidermal Thickness (Acanthosis) after 7 days treatment ([4]; 0.05% clobetasol propionate, donor patient 4 (PASI 17.6), before treatment 54 μm): 24 μm
Epidermal Thickness (Acanthosis) after 7 days treatment ([4]; 0.05% clobetasol propionate, donor patient 5 (PASI 31.3), before treatment 35 μm): 47 μm

O=C(O)CCCCC1CCSS1 (centres unmarked) [Lipoicacid, lipoic acid]
% Inhibition of Proliferation [2, 7]: 50.2%
% Inhibition of Proliferation [2, 8]: 14.5%

CCCn1cnc2c1c(=O)n(CCCCC(C)=O)c(=O)n2C [Propentofylline, 3-methyl-7-propyl-1-(5-oxohexyl)-xanthine]
inhibition at 1000 µM [3]: 89%
inhibition at 300 µM [3]: 88%
inhibition of the mitogenic stimulation compared with the other xanthine derivatives (in words) ([3]; vs theophylline and diphylline, healthy volunteers): inhibited the mitogenic stimulation to a far greater effect than the other xanthine derivatives
inhibition at 1000 µM ([2]; Homo sapiens, Fibroblast, compound alone, 10^-3 M, Table 4): 39 ± 7%
inhibition at 100 µM ([2]; Homo sapiens, Fibroblast, compound alone, 10^-4 M, Table 4): 20.3 ± 6.6%

Cn1c(=O)c2c(ncn2CC(O)CO)n(C)c1=O (centres unmarked) [Dyphylline]
inhibition at 1000 µM [3]: 24%
inhibition at 300 µM [3]: 12%
SUCCESS RATIO (decrease of at least 15% in epidermal thickness) ([4]; 8% dyphylline, 7 days topical, placebo 0/6): 0/2
% Improvement (Decrease in Thickness) ([4]; 8% dyphylline, donor patient 1 (PASI 3.2)): 0%
% Improvement (Decrease in Thickness) ([4]; 8% dyphylline, donor patient 5 (PASI 31.3)): 0%
Average Improvement (decrease in epidermal thickness) ([4]; 8% dyphylline): 0%
Epidermal Thickness (Acanthosis) after 7 days treatment ([4]; 8% dyphylline, donor patient 1 (PASI 3.2), before treatment 44 μm): 65 μm
Epidermal Thickness (Acanthosis) after 7 days treatment ([4]; 8% dyphylline, donor patient 5 (PASI 31.3), before treatment 35 μm): 45 μm
effectiveness in treating psoriasis (in words) ([4]; experiment of Table 1, transplanted skin): virtually inactive
effectiveness in treating psoriasis (in words) ([4]; experiment of Table 2, 28 nude mice): inactive
effectiveness of treatment of psoriasis (in words) (psoriasis lesions; 5% dyphylline cream vs placebo): nearly ineffective with respect to placebo; also recorded: virtually inactive in the treatment of psoriasis
% Decrease in PASI (psoriasis lesions; 1 week, placebo 12.4): 12.6%
% Decrease in PASI (psoriasis lesions; 2 weeks, placebo 30.0): 25.9%
% Decrease in PASI (psoriasis lesions; 4 weeks, placebo 21.5): 28.0%
% Decrease in PASI (psoriasis lesions; 6 weeks, placebo 15.6): 26.5%
